# Experimental data as given in ChEMBL document CHEMBL1268811, “A retro-inverso TAT-like peptide designed to deliver cysteamine to cells” (Bioorg Med Chem Lett, 2010).
# *1 amine or outer side, *2 acyl side, *3 side chain or, on linkers, in order; H or OH if unused. Where a SMILES comes first, the peptide text is derived from it. The star is where a group is joined. 5TAMRA = CN(C)c1ccc2c(c1)Oc1cc(N(C)C)ccc1C21OC(=O)c2cc(C(=O)*)ccc21; Cysteamine = C(CS[*:2])N[*:1]
# Experiment: Drug uptake in lysosomes of human HeLa cells transfected with Cerulean-Lamp-1 plasmid at 1 uM after 1 hr by fluorescence microscopy; call rule not given here
# Assay type: ADME, cell-based, Lysosome
row,Drug uptake,Structure (SMILES)
1,Active,CN(C)c1ccc2c(c1)Oc1cc(N(C)C)ccc1C21OC(=O)c2cc(C(=O)N[C@@H](CCCNC(=N)N)C(=O)N[C@@H](CCCNC(=N)N)C(=O)N[C@@H](CCCNC(=N)N)C(=O)N[C@@H](CCC(N)=O)C(=O)N[C@@H](CCCNC(=N)N)C(=O)N[C@@H](CCCNC(=N)N)C(=O)N[C@@H](CSSCCN)C(=O)N[C@@H](CSSCCN)C(=O)N[C@@H](CCCNC(=N)N)C(=O)NCC(=O)N[C@@H](Cc3ccc(O)cc3)C(=O)O)ccc21 (5TAMRA-RRRQRRC(Cysteamine)C(Cysteamine)RGY-OH)
2,Not Active,CN(C)c1ccc2c(c1)Oc1cc(N(C)C)ccc1C21OC(=O)c2cc(C(=O)N[C@@H](CCCNC(=N)N)C(=O)N[C@@H](CCCNC(=N)N)C(=O)N[C@@H](CCCNC(=N)N)C(=O)N[C@@H](CCC(N)=O)C(=O)N[C@@H](CCCNC(=N)N)C(=O)N[C@@H](CCCNC(=N)N)C(=O)N[C@@H](CSSCCN)C(=O)N[C@@H](CS)C(=O)N[C@@H](CCCNC(=N)N)C(=O)NCC(=O)N[C@@H](Cc3ccc(O)cc3)C(=O)O)ccc21 (5TAMRA-RRRQRRC(Cysteamine)CRGY-OH)
3,Not Active,CN(C)c1ccc2c(c1)Oc1cc(N(C)C)ccc1C21OC(=O)c2cc(C(=O)N[C@@H](CCCNC(=N)N)C(=O)N[C@@H](CCCNC(=N)N)C(=O)N[C@@H](CCCNC(=N)N)C(=O)N[C@@H](CCC(N)=O)C(=O)N[C@@H](CCCNC(=N)N)C(=O)N[C@@H](CCCNC(=N)N)C(=O)N[C@@H](CS)C(=O)N[C@@H](CSSCCN)C(=O)N[C@@H](CCCNC(=N)N)C(=O)NCC(=O)N[C@@H](Cc3ccc(O)cc3)C(=O)O)ccc21 (5TAMRA-RRRQRRCC(Cysteamine)RGY-OH)
4,Not Active,CN(C)c1ccc2c(c1)Oc1cc(N(C)C)ccc1C21OC(=O)c2cc(C(=O)N[C@@H](CCCNC(=N)N)C(=O)N[C@@H](CCCNC(=N)N)C(=O)N[C@@H](CCCNC(=N)N)C(=O)N[C@@H](CCC(N)=O)C(=O)N[C@@H](CCCNC(=N)N)C(=O)N[C@@H](CCCNC(=N)N)C(=O)N[C@@H](CS)C(=O)N[C@@H](CS)C(=O)N[C@@H](CCCNC(=N)N)C(=O)NCC(=O)N[C@@H](Cc3ccc(O)cc3)C(=O)O)ccc21 (5TAMRA-RRRQRRCCRGY-OH)
